Data published in US20250064864A1, “MICROBIAL STRAIN OF LACHNOSPIRACEAE, DRUG FOR PREVENTING OR TREATING TUMORS AND USE” (MOON (GUANGZHOU) BIOTECH CO., LTD., priority 2021, published 2025).
Like-named read-outs stand apart in the source and are kept apart here.

Assays:
MNH 46686 strain = assay: Antibiotic susceptibility test by disk diffusion method; format: cell-based, Lachnospiraceae sp. MNH 46686; details: for Diameter of inhibition zone: against MNH 46686 strain
Excerpt: 2.4 Antibiotic Susceptibility Test of MNH 46686 Strain by Disk Diffusion Method

IFNβ = assay: THP-1 IFNβ-promoter reporter (luciferase) assay; format: cell-based; details: 20 μM, 40 μM and 80 μM, 24 h
Excerpt: Interferon (IFN) […] are a group of cytokines secreted by host cells, which can regulate immune responses. Interferons are produced under stimulation by viruses, bacterial endotoxins, synthetic double-stranded RNAs, etc. Macrophages, lymphocytes, somatic cells, etc., in the human body can all produce interferons, in which IFNβ belongs to type I interferons and can promote the activities of NK cells, macrophages, and T lymphocytes. […] Furthermore, the MNH 46686 strain of the present disclosure has been experimentally verified to be able to promote the expression of IFNβ, thereby exerting anti-viral, anti-tumor, immunomodulatory, and other effects. In order to verify whether MNH 46686 can promote the expression of IFNβ, the constructed THP-1 cells (a cell line established by Moon Co.) carrying the IFNβ-promoter reporter were used in this study to evaluate the effect of MNH 46686 on the transcriptional activity of IFNβ. […]
The THP-1-IFNβ-promoter reporter cells were inoculated in a 96-well plate, with 1×10^5 cells per well. […] The chemiluminescence values were detected with a microplate reader. The relative luminescence values were normalized to the untreated group and compared with the relative luminescence readings of the High group to evaluate the effect of MNH 46686 on the transcriptional activity of IFNβ.

| Compound | Note (susceptibility of MNH 46686 strain to the antibiotic) (MNH 46686 strain) | Diameter of inhibition zone (MNH 46686 strain) [mm] | other results |
| --- | --- | --- | --- |
| CC1(C)S[C@@H]2[C@H](NC(=O)[C@H](N)c3ccccc3)C(=O)N2[C@H]1C(=O)O [Ampicillin] | Resistant | 0.00 | Note (susceptibility of MNH 46686 strain to the antibiotic) (MNH 46686 strain; listed as ampicillin): resistant |
| CO/N=C(\C(=O)N[C@@H]1C(=O)N2C(C(=O)O)=C(CSc3nc(=O)c(=O)[nH]n3C)CS[C@H]12)c1csc(N)n1 [Ceftriaxone] | Resistant | 0.00 | Note (susceptibility of MNH 46686 strain to the antibiotic) (MNH 46686 strain; listed as ceftriaxone): resistant |
| O=C(N[C@H](CO)[C@H](O)c1ccc([N+](=O)[O-])cc1)C(Cl)Cl [Chloramphenicol] | Sensitive | 18.45 | Note (susceptibility of MNH 46686 strain to the antibiotic) (MNH 46686 strain; listed as chloramphenicol): sensitive |
| O=C(O)c1cn(C2CC2)c2cc(N3CCNCC3)c(F)cc2c1=O [Ciprofloxacin] | Resistant | 0.00 | Note (susceptibility of MNH 46686 strain to the antibiotic) (MNH 46686 strain; listed as ciprofloxacin): resistant |
| CC[C@H]1OC(=O)[C@H](C)[C@@H](O[C@H]2C[C@@](C)(OC)[C@@H](O)[C@H](C)O2)[C@H](C)[C@@H](O[C@@H]2O[C@H](C)C[C@H](N(C)C)[C@H]2O)[C@](C)(O)C[C@@H](C)C(=O)[C@H](C)[C@@H](O)[C@]1(C)O [Erythromycin] | Resistant | 0.00 | Note (susceptibility of MNH 46686 strain to the antibiotic) (MNH 46686 strain; listed as erythromycin): resistant |
| CCC[C@@H]1C[C@@H](C(=O)N[C@@H]([C@H]2O[C@H](SC)[C@H](O)[C@@H](O)[C@H]2O)[C@@H](C)O)N(C)C1 [Lincomycin] | Resistant | 0.00 | Note (susceptibility of MNH 46686 strain to the antibiotic) (MNH 46686 strain; listed as lincomycin): resistant |
| COc1cc2cc(C(=O)CCC(=O)O)sc2cc1OC [MSA-2] | – | – | response of the IFNβ reporter system to the positive drug (IFNβ): good response |
| CN(C)[C@@H]1C(O)=C(C(N)=O)C(=O)[C@@]2(O)C(O)=C3C(=O)c4c(O)cccc4[C@@](C)(O)[C@H]3C[C@@H]12 [Tetracycline] | – | 12.01 | – |
| Gentamicin | Sensitive | 10.90 | Note (susceptibility of MNH 46686 strain to the antibiotic) (MNH 46686 strain; listed as gentamicin): sensitive |
| Penicillin | Sensitive | 19.69 | Note (susceptibility of MNH 46686 strain to the antibiotic) (MNH 46686 strain; listed as penicillin): sensitive |
| Trimethoprim-sulfamethoxazole | Resistant | 0.00 | Note (susceptibility of MNH 46686 strain to the antibiotic) (MNH 46686 strain; listed as trimethoprim-sulfamethoxazole): resistant |
